Assay results published in patent US9611230B2, “1,3,4-oxadiazole benzoic acid compounds and their use for nonsense suppression and the treatment of disease” (PTC Therapeutics, Inc., priority 2004, dated 2017).

Compound	melting point
CC(C)c1ccc(NC(=O)Nc2cccc(-c3nnc(-c4ccc(C(=O)O)cc4)o3)c2)cc1 [Compound No. 60, 4-(5-{3-[3-(4-isopropylphenyl)ureido]phenyl}-[1,3,4]oxadiazol-2-yl)benzoic acid]	> 270 °C
CN(C)c1ccccc1-c1nnc(-c2ccccc2C(=O)O)o1 [Compound 610]	180 to 183 °C
CC(C)c1ccc(-c2ccc(-c3cccc(C(=O)O)c3)s2)cc1 [Compound No. 400, 3-[5-(4-isopropylphenyl)thiophen-2-yl]benzoic acid]	233 to 235 °C
Cc1ccc(-c2n[nH]c(-c3cccc(C(=O)O)c3)n2)cc1 [Compound 457]	> 300 °C
CC(=O)Nc1cccc(-c2nnc(-c3ccc(C(=O)O)cc3)o2)c1 [Compound 14]	> 275 °C
O=C(O)c1ccc(-c2ncc(-c3ccc(F)cc3)o2)cc1 [Compound 554]	245 to 246 °C
CN(C)c1ccc(Cc2nnc(-c3cccc(C(=O)O)c3)o2)cc1 [Compound 85]	220 to 222 °C
CC(C)c1ccc(-c2ccc(-c3cccc(C(=O)O)c3)o2)cc1 [Compound No. 322, 3-[5-(4-isopropylphenyl)furan-2-yl]benzoic acid]	172 to 176 °C
CC(C)c1cccc(-c2cnc(-c3ccc(C(=O)O)cc3)o2)c1 [Compound 644]	236 to 237 °C
O=C(O)c1ccc(-c2ncc(-c3cccc(F)c3F)o2)cc1 [Compound 549]	295 to 296 °C
CC(C)c1ccc(-c2nnc(-c3ccc(C(=O)O)cc3)s2)cc1 [Compound No. 324, 4-[5-(4-isopropylphenyl)-[1,3,4]thiadiazol-2-yl]benzoic acid]	> 300 °C
O=C(O)c1ccc(-c2cc(-c3ccccc3F)on2)cc1 [Compound 529]	292.5 to 293.5 °C
O=C(O)c1cccc(-c2nc(-c3ccc(Br)cc3)n[nH]2)c1 [Compound 423]	309 to 311 °C
O=C(O)c1ccc(-c2ncc(-c3ccc4c(c3)OCCO4)o2)cc1 [Compound 631]	308 to 309 °C
CS(=O)(=O)Nc1cccc(-c2nnc(-c3ccc(C(=O)O)cc3)o2)c1 [Compound 12]	> 270 °C
O=C(O)c1ccc(-c2ncc(C#Cc3ccccc3)o2)cc1 [Compound 651]	251 to 253 °C
O=C(O)c1cccc(-c2nnc(-c3ccc(Cl)nc3)o2)c1 [Compound 222]	278 to 282 °C
CC(C)c1ccc(-c2nc(-c3cccc(C(=O)O)c3)ns2)cc1 [Compound No. 323, 3-[5-(4-isopropylphenyl)-[1,2,4]thiadiazol-3-yl]-benzoic acid]	165 to 167 °C
O=C(O)c1ccc(-c2ncc(-c3ccccc3F)o2)cc1 [Compound 550]	272 to 273 °C
CC(C)c1ccc(-c2csc(-c3cccc(C(=O)O)c3)c2)cc1 [Compound No. 327, 3-[4-(4-isopropylphenyl)-thiophen-2-yl]-benzoic acid]	220 to 222 °C
CN(C)c1ccc(-c2nnc(-c3cccc(C(=O)[O-])c3)o2)cc1.[Na+] [Compound 624]	227 to 235 °C (dec.)
CC(C)c1ccc(-c2ncc(-c3cccc(C(=O)O)c3)s2)cc1 [Compound No. 321, 3-[2-(4-isopropylphenyl)thiazol-5-yl]benzoic acid]	237 to 239 °C
O=C(O)c1ccc(-c2ncc(-c3ccccc3Cl)o2)cc1 [Compound 555]	276 to 277 °C

Compound	melting point
CC(C)c1ccc(-c2cc(-c3cccc(C(=O)O)c3)cs2)cc1 [Compound No. 348, 3-[5-(4-isopropylphenyl)thiophen-3-yl]benzoic acid]	208 to 209 °C
COc1cccc(-c2cnc(-c3ccc(C(=O)O)cc3)o2)c1 [Compound 544]	240 to 242 °C
CN(C)C(=O)c1ccc(-c2nnc(-c3ccc(C(=O)O)cc3)o2)cc1 [Compound 278]	> 310 °C
CC(C)c1ccc(-c2ncc(-c3cccc(C(=O)O)c3)[nH]2)cc1 [Compound No. 311, 3-[2-(4-isopropylphenyl)-3H-imidazol-4-yl]benzoic acid]	283 to 285 °C
O=C(O)c1ccc(-c2cc(-c3ccc(F)cc3F)no2)cc1 [Compound 538]	324 to 326 °C
O=C(O)c1cccc(-c2ncc(-c3ccc(C(F)(F)F)cc3)o2)c1 [Compound 586]	223.5 to 225 °C
O=C(O)c1ccc(-c2ncc(-c3cccc(O)c3)o2)cc1 [Compound 648]	291 to 292 °C
O=C(O)c1cccc(-c2nc(-c3ccc(C(F)(F)F)cc3)n[nH]2)c1 [Compound 456]	235 to 238 °C
CC(C)c1ccc(-c2cnc(-c3cccc(C(=O)O)c3)[nH]2)cc1 [Compound No. 277, 3-[5-(4-isopropylphenyl)-1H-imidazol-2-yl]benzoic acid]	296 to 298 °C
O=C(O)c1ccc(-c2cc(-c3ccc(F)cc3F)on2)cc1 [Compound 531]	317 to 319 °C
Cc1cccc(-c2cnc(-c3ccc(C(=O)O)cc3)o2)c1 [Compound 632]	248 to 249 °C
COc1ccc(-c2n[nH]c(-c3cccc(C(=O)O)c3)n2)cc1 [Compound No. 424, 3-[5-(4-methoxy-phenyl)-2H-[1,2,4]triazol-3-yl]-benzoic acid]	287 to 289 °C
CC(C)c1ccc(-c2nc(-c3ccc(C(=O)O)cc3)no2)cc1 [Compound No. 275, 4-[5-(4-isopropylphenyl)-[1,2,4]oxadiazol-3-yl]benzoic acid]	210 to 213 °C
CC(C)c1ccc(NC(=O)c2nnc(-c3cccc(C(=O)O)c3)o2)cc1 [Compound 283]	220 to 226 °C
O=C(O)c1ccc(-c2ncc(-c3ccc(Cl)cc3)o2)cc1 [Compound 639]	260 to 263 °C
CCc1ccc(-c2cnc(-c3ccc(C(=O)O)cc3)o2)cc1 [Compound 634]	233 to 234 °C
CN(C)c1cc(-c2nnc(-c3ccc(C(=O)O)cc3)o2)ccn1 [Compound 224]	240 to 250 °C
O=C(O)c1cccc(-c2nnc(-c3ccc(N4CCCC4)cc3)o2)c1 [Compound 280]	274 to 276 °C
CC(C)c1ccc(-c2nnc(-c3cccc(C(=O)[O-])c3)o2)cc1.[Na+] [Compound 626]	200 to 205 °C (dec.)
CC(C)c1ccc(-c2nnc(-c3ccc(C(=O)O)cc3)o2)cc1 [Compound 5]	262 to 265 °C
COc1ccc(-c2cc(-c3ccc(C(=O)O)cc3)on2)cc1 [Compound 539]	297.5 to 299.5 °C
O=C(O)c1ccc(-c2ncc(-c3cccc(OCc4ccccc4)c3)o2)cc1 [Compound 646]	210 to 211 °C
Cc1cccc(-c2ccc(-c3nnc(-c4cccc(C(=O)O)c4)o3)cn2)c1 [Compound 282]	274 to 275 °C

Now from value to molecule:

melting point	Compound
283.5 to 285 °C	O=C(O)c1cccc(-c2cc(-c3ccc(Br)cc3F)on2)c1 [Compound 482]
> 278.5 °C	O=C(O)c1cccc(-c2cc(-c3ccc(F)cc3F)no2)c1 [Compound 499]
249.5 to 251 °C	COc1ccc(-c2cc(-c3cccc(C(=O)O)c3)no2)cc1 [Compound 480]
257 to 259 °C	Cc1ccc(-c2cc(-c3cccc(C(=O)O)c3)no2)cc1 [Compound 573]
> 310 °C	O=C(O)c1cccc(-c2nnc(-c3cc4ccccc4[nH]3)o2)c1 [Compound 315]
> 310 °C	O=C(O)c1cccc(-c2nc(-c3ccccc3F)n[nH]2)c1 [Compound 425]
218 to 219 °C	O=C(O)c1cccc(-c2ncc(-c3ccccc3C(F)(F)F)o2)c1 [Compound 584]
> 300 °C	O=C(O)c1cccc(-c2nc(-c3ccccc3O)n[nH]2)c1 [Compound 455]
221.5 to 223 °C	O=C(O)c1cccc(-c2nc(-c3cccc(F)c3)no2)c1 [Compound 507]
249 to 250 °C	N#Cc1c(-c2cccc(C(=O)O)c2)noc1-c1ccccc1 [Compound 487]
193 to 195 °C	CC(C)c1ccc(-c2nc(-c3cccc(C(=O)O)c3)cs2)cc1 [Compound No. 312, 3-[2-(4-isopropylphenyl)thiazol-4-yl]-benzoic acid]
190 to 192 °C	CC(C)c1cccc(-c2nnc(-c3cccc(C(=O)O)c3)o2)c1 [Compound 620]
236 to 237 °C	O=C(O)c1cccc(-c2ncc(-c3ccccc3Cl)o2)c1 [Compound 582]
236 to 239 °C	CC(C)c1ccc(-c2nc(-c3cccc(C(=O)O)c3)co2)cc1 [Compound No. 313, 3-[2-(4-isopropylphenyl)-oxazol-4-yl]benzoic acid]
264 to 265 °C	O=C(O)c1cccc(-c2cc(-c3cccc(F)c3)no2)c1 [Compound 502]
206 to 208 °C	CC(C)c1ccc(-c2csc(-c3cccc(C(=O)O)c3)n2)cc1 [Compound No. 289, 3-[4-(4-isopropylphenyl)thiazol-2-yl]-benzoic acid]
238 to 239 °C	COc1cccc(-c2cc(-c3cccc(C(=O)O)c3)n[nH]2)c1 [Compound 551]
244 to 246 °C	COc1ccccc1-c1cnc(-c2cccc(C(=O)O)c2)o1 [Compound 593]
207 to 208 °C	Cc1ccccc1-c1cnc(-c2cccc(C(=O)O)c2)o1 [Compound 588]
281 to 282 °C	O=C(O)c1cccc(-c2cc(-c3ccc(C(F)(F)F)cc3)on2)c1 [Compound 574]
246 to 247 °C	COc1ccc(-c2cc(-c3cccc(C(=O)O)c3)on2)cc1 [Compound 500]
249.5 to 251 °C	O=C(O)c1cccc(-c2nc(-c3ccc(C(F)(F)F)cc3)no2)c1 [Compound 513]
319 to 321 °C	O=C(O)c1ccc(-c2cc(-c3cccc(F)c3)no2)cc1 [Compound 536]
228 to 229 °C	O=C(O)c1cccc(-c2ncc(-c3ccccc3F)o2)c1 [Compound 579]
247 to 250 °C	COc1cccc(-c2n[nH]c(-c3cccc(C(=O)O)c3)n2)c1 [Compound 458]
198 to 202 °C	O=C(O)c1cccc(-c2noc(-c3ccccc3)c2C=NO)c1 [Compound 486]
